Values joined by “and” are separate entries in the source; they are usually repeats but may differ in a detail not shown here. Identical values can stand only once. Like-named read-outs stand apart in the source and are kept apart here.
Assays:
apoB mRNA editing = details: for apoB mRNA editing, Mean ± SEM: 6 hours
Procedure: Protein phosphatase inhibitor studies. […] The compounds' effects on apoB mRNA editing were evaluated by RT-PCR and poisoned-primer extension analysis (Sowden et al. Rna 2:274-88 (1996)). The effect of 470 nM cantharidin on ACF subcellular distribution was investigated by treating primary hepatocyte cultures for 6 hours followed by nuclear and cytoplasmic extract preparation.
It was reasoned that if phosphorylation of ACF regulated editing activity, treatment of rat primary hepatocytes with phosphatase inhibitors might stimulate apoB mRNA editing activity. […] The experiments (n=4-6) were done over a number of months and therefore represent primary hepatocytes from several rats.
Editing activity was quantified from primary hepatocytes incubated with 10-100-times the EC50 of the various […] (Calbiochem).

ACF [1] = experiment: hepatic ACF nuclear retention in lean and ob/ob mice after insulin challenge; assay type: in vivo, mouse; details: 4 h following 1.5 IU insulin/kg BW
Procedure: The mice are insulin-resistant as evident in elevated blood glucose (180-220 mg/dl after fasting) and lack a significant response to challenge when injected with 1.5 IU of insulin/kg BW. It has been shown that apobec-1 gene expression and apoB mRNA editing is markedly stimulated by insulin (Sowden, M. P. et al. (2002); Funahashi, T. F. et al (1995); Phung, T. L. et al. Metabolism 45, 1056-1058 (1996); von Wronski, M. A. et al. Metabolism 47, 869-73 (1998)). As a further indicator of the insulin-resistant state of these animals, it is apparent that hepatic apoB mRNA editing is not stimulated compared to cogenic lean mice (FIG. 40). The results from three fed animals as lean, ob/ob and 4 h Insulin-treated ob/ob mice are shown. Editing was evaluated using the established poisoned-primer extension assay for quantifying edited apoB mRNA where % editing is calculated from PhosphorImager scans as the counts in the edited band, divided by the sum of the counts in the edited plus unedited bands X 100. The nuclear-cytoplasmic distribution of ACF was next assessed in lean and ob/ob mouse liver without or with insulin challenge (4 h following 1.5 IU insulin/kg BW). […] The fold-nuclear retention of total cellular ACF was calculated from these values and is provided at the bottom of the image.

ACF [2] = experiment: ACF phosphorylation in 32P-labeled rat primary hepatocytes (ACF immunoprecipitation, autoradiography); assay type: cell-based; details: 10 nM insulin, 4 hours
Procedure: In vivo phosphorylation of ACF. In vivo ^32P labeling was performed by intraperitoneal injection of rats with 12.5 mCi of orthophosphoric acid (10 mCi/ml ^32PO4; NEN, Boston, Mass.) buffered with 50 mM HEPES, pH 7.0 and 150 mM NaCl. After 4 hours, rats were sacrificed and hepatic cytoplasmic and nuclear extracts prepared. Primary hepatocyte cultures in 60 mm dishes were incubated in phosphate-free Minimum Essential Eagle Media (Sigma) containing 0.1 nM porcine insulin for 6 hours and subsequently in fresh media containing 10 nM insulin (equivalent to that seen in post-prandial serum) or 0.45% to 0.9% ethanol (AAPER Alcohol and Chemical Co., Shelbyville, Ky.) (Van Mater et al. (1998), Yang et al. (2000)) plus 2.0 mCi orthophosphoric acid. Cultures were labeled for 4 hours prior to extract preparation.
To evaluate the effect of phosphatase inhibition on ACF phosphorylation, cultures were pre-incubated for 2 hours with 470 nM cantharadin in phosphate-free Waymouth's media and subsequently supplemented with 0.5 mCi ^32pO4 and incubated for an additional 4 hours. Cultures were harvested and subcellular extracts prepared.
Immunological techniques. […] For immunoprecipitation analyses all radiolabeled extracts were adjusted to 5 mM MgCl2 and digested with 100 units of DNase I (Promega), RNase T1 (Roche, Ind.), and RNase A (Sigma) for 1 hour on ice to remove radiolabeled nucleic acid. Where applicable, extracts were incubated overnight with ACF CT antibody at 4° C. and subsequently reacted with Protein A-agarose (Oncogene Research Products, Boston, Mass.) pre-washed with 1×TBS/10 mM NaF. The immuno-absorbed material was washed 3 times with 1×TBS/10 mM NaF, 3 times with 1×TBS/1 M NaCl (Yang et al. (1997)) and lastly 3 times with 1×TBS. Immuno-absorbed material to be treated with alkaline phosphatase was washed with 50 mM Tris, pH 8.4, 1 mM MgCl2, 0.1 mM ZnCl2, 25% glycerol and then incubated with 5 U CIAP for 1 hour at 30° C. and then washed 6 times with 1×TBS. ACF-antibody complexes were eluted with 3 M sodium thiocyanate, acetone precipitated and analyzed by 10.5% SDS-PAGE followed by autoradiography and/or western blotting with ACF NT antibody. For ACF immunoprecipitation from gradient fractions an equal volume of pooled gradient fractions from sedimentation zones of interest were reacted with sub-saturating amounts of ACF CT antibody to ensure that the recovery of phospho-ACF was not simply a reflection of ACF abundance in each zone.
To evaluate this, cytoplasmic and nuclear extracts from radiolabeled primary hepatocyte cultures were sedimented through 10%-50% glycerol gradients. […] The ACF immunoprecipitates were resolved by SDS-PAGE, transferred to nitrocellulose, autoradiographed and subjected to phosphorimager scanning to detect and quantify radiolabeled proteins prior to immunoblotting with the ACF NT antibody.

AC = details: cited from earlier work

Question: With `O=S(=O)(NCCNC/C=C/c1ccc(Br)cc1)c1cccc2cnccc12` [H89] as the compound, how does the “effect on editing in hepatocytes” value (apoB mRNA editing) read?
Answer: stimulated

Question: Which “editing in metabolic state of rat hepatocytes (model, basal ~65%)” value (apoB mRNA editing) does the source give for insulin: porcine insulin (Sigma) here?
Answer: ~80%

Question: And the “hepatic ACF nuclear retention, fold change” value (ACF [1]; lean mice)?
Answer: 4 fold

Question: What about the “hepatic ACF nuclear retention, fold change” value (ACF [1]; ob/ob mice) of the same compound?
Answer: 0.9 fold

Question: What about the “increase of phosphorylated ACF in nuclear 27S editosomes” value (ACF [2]) of the same compound?
Answer: 2.5 fold and 2 fold

Question: With `CC(C)NCC(O)c1ccc(O)c(O)c1` (stereo not shown) [Isoproterenol] as the compound, how does the EC50 (AC; activation of cAMP dependent kinases) read?
Answer: 50 µM

Question: And the EC50 (AC; range printed with mixed units)?
Answer: 0.001 to 100 µM

Question: For `O=S(=O)(c1cccc2c(I)cccc12)N1CCCNCC1` [ML-7], which “effect on editing in hepatocytes” value (apoB mRNA editing) is on record?
Answer: did not affect editing

Question: What does the source list for `CC1(C)C(C=C(Cl)Cl)C1C(=O)OC(C#N)c1cccc(Oc2ccccc2)c1` (stereo not shown) [Cypermethrin]?
Answer: apoB mRNA editing, Mean ± SEM (apoB mRNA editing; 50 pM): 69 ± 4%; apoB mRNA editing, Mean ± SEM (apoB mRNA editing; 5 nM): 66 ± 4%; effect on apoB mRNA editing (apoB mRNA editing; concentration not given): did not affect significantly apoB mRNA editing

Question: Which “effect on editing in hepatocytes” value (apoB mRNA editing) does the source give for `COc1ccc(S(=O)(=O)N(CCO)c2ccccc2CN(C)C/C=C/c2ccc(Cl)cc2)cc1` [KN93] here?
Answer: stimulated

Question: With `COc1cccc(-c2cc(=O)c3ccccc3o2)c1N` [PD98059] as the compound, how does the “effect on editing in hepatocytes” value (apoB mRNA editing) read?
Answer: did not affect editing
